Measurements published in PubChem BioAssay (NCI).
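A five-concentration, 48-hour dose response in 96-well plates underlies each endpoint, interpolated linearly between surrounding concentrations. GI50 is the concentration that inhibits growth by half. TGI denotes the concentration required for complete inhibition of growth.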

Tests used:
Assay in all cases: NCI anticancer screen, dose series, 48 h
UACC-257 melanoma = test system: UACC-257 melanoma
LOX IMVI melanoma = test system: LOX IMVI melanoma
NCI/ADR-RES ovarian = test system: NCI/ADR-RES ovarian
SK-MEL-2 melanoma = test system: SK-MEL-2 melanoma
HL-60(TB) leukemia = test system: HL-60(TB) leukemia
NCI-H460 lung = test system: NCI-H460 lung
UACC-62 melanoma = test system: UACC-62 melanoma
OVCAR-3 ovarian = test system: OVCAR-3 ovarian
SK-MEL-5 melanoma = test system: SK-MEL-5 melanoma
HCT-15 colon = test system: HCT-15 colon
M14 melanoma = test system: M14 melanoma
HOP-62 NSCLC = test system: HOP-62 NSCLC
HOP-92 NSCLC = test system: HOP-92 NSCLC
OVCAR-4 ovarian = test system: OVCAR-4 ovarian
NCI-H226 lung = test system: NCI-H226 lung
UO-31 renal = test system: UO-31 renal
OVCAR-8 ovarian = test system: OVCAR-8 ovarian
SK-OV-3 ovarian = test system: SK-OV-3 ovarian
786-0 renal = test system: 786-0 renal
TK-10 renal = test system: TK-10 renal
IGROV1 ovarian = test system: IGROV1 ovarian
SR leukemia = test system: SR leukemia
SNB-19 CNS = test system: SNB-19 CNS
ACHN renal = test system: ACHN renal
KM12 colon = test system: KM12 colon
SF-295 CNS = test system: SF-295 CNS
SK-MEL-28 melanoma = test system: SK-MEL-28 melanoma
NCI-H23 lung = test system: NCI-H23 lung
A549 NSCLC = test system: A549 NSCLC
MOLT-4 leukemia = test system: MOLT-4 leukemia
EKVX NSCLC = test system: EKVX NSCLC
MDA-MB-435 = test system: MDA-MB-435
A498 renal = test system: A498 renal
SF-268 CNS = test system: SF-268 CNS
MALME-3M melanoma = test system: MALME-3M melanoma
MCF7 breast = test system: MCF7 breast
HCC-2998 colon = test system: HCC-2998 colon
K-562 leukemia = test system: K-562 leukemia
HT29 colon = test system: HT29 colon
SW-620 colon = test system: SW-620 colon
T-47D breast = test system: T-47D breast
RPMI-8226 leukemia = test system: RPMI-8226 leukemia
SF-539 CNS = test system: SF-539 CNS
U251 CNS = test system: U251 CNS
BT-549 breast = test system: BT-549 breast
COLO 205 colon = test system: COLO 205 colon
RXF 393 renal = test system: RXF 393 renal
HS 578T breast = test system: HS 578T breast
MDA-MB-231 breast = test system: MDA-MB-231 breast
SN12C renal = test system: SN12C renal
CCRF-CEM leukemia = test system: CCRF-CEM leukemia
NCI-H522 lung = test system: NCI-H522 lung
OVCAR-5 ovarian = test system: OVCAR-5 ovarian
HCT-116 colon = test system: HCT-116 colon
PC-3 prostate = test system: PC-3 prostate
SNB-75 CNS = test system: SNB-75 CNS

Q: With `CCC(C)[C@H]1OC(=O)[C@H](C(C)C)N(C)C(=O)[C@@H](C(C)C)OC(=O)[C@H](C(C)C)N(C)C(=O)[C@@H](C(C)CC)OC(=O)[C@H](C(C)C)N(C)C1=O` (some centres not stated) as the compound, how does the GI50 (UACC-257 melanoma) read?
A: 427 nM

Q: What about the TGI (UACC-257 melanoma) of the same compound?
A: 1560 nM

Q: What about the GI50 (LOX IMVI melanoma) of the same compound?
A: 562 nM

Q: And the TGI (LOX IMVI melanoma)?
A: 2140 nM

Q: And the GI50 (NCI/ADR-RES ovarian)?
A: 510 nM

Q: What about the TGI (NCI/ADR-RES ovarian) of the same compound?
A: 5900 nM

Q: What about the GI50 (SK-MEL-2 melanoma) of the same compound?
A: 533 nM

Q: What about the TGI (SK-MEL-2 melanoma) of the same compound?
A: 2190 nM

Q: And the GI50 (HL-60(TB) leukemia)?
A: 383 nM

Q: What about the TGI (HL-60(TB) leukemia) of the same compound?
A: 851 nM

Q: And the GI50 (NCI-H460 lung)?
A: 570 nM

Q: What about the TGI (NCI-H460 lung) of the same compound?
A: 3350 nM

Q: What about the GI50 (UACC-62 melanoma) of the same compound?
A: 710 nM

Q: What about the TGI (UACC-62 melanoma) of the same compound?
A: 2980 nM

Q: What about the GI50 (OVCAR-3 ovarian) of the same compound?
A: 694 nM

Q: And the TGI (OVCAR-3 ovarian)?
A: > 16700 nM

Q: And the GI50 (SK-MEL-5 melanoma)?
A: 357 nM

Q: And the TGI (SK-MEL-5 melanoma)?
A: 783 nM

Q: What about the GI50 (HCT-15 colon) of the same compound?
A: 536 nM

Q: What about the TGI (HCT-15 colon) of the same compound?
A: 3520 nM

Q: What about the GI50 (M14 melanoma) of the same compound?
A: 601 nM

Q: What about the TGI (M14 melanoma) of the same compound?
A: 2550 nM

Q: And the GI50 (HOP-62 NSCLC)?
A: 491 nM

Q: What about the TGI (HOP-62 NSCLC) of the same compound?
A: 2420 nM

Q: And the GI50 (HOP-92 NSCLC)?
A: 379 nM

Q: And the TGI (HOP-92 NSCLC)?
A: 1050 nM

Q: And the GI50 (OVCAR-4 ovarian)?
A: 632 nM

Q: What about the TGI (OVCAR-4 ovarian) of the same compound?
A: > 16700 nM

Q: What about the GI50 (NCI-H226 lung) of the same compound?
A: 647 nM

Q: What about the TGI (NCI-H226 lung) of the same compound?
A: 2730 nM

Q: What about the GI50 (UO-31 renal) of the same compound?
A: 422 nM

Q: And the TGI (UO-31 renal)?
A: 1710 nM

Q: What about the GI50 (OVCAR-8 ovarian) of the same compound?
A: 610 nM

Q: What about the TGI (OVCAR-8 ovarian) of the same compound?
A: > 16700 nM

Q: And the GI50 (SK-OV-3 ovarian)?
A: 379 nM

Q: What about the TGI (SK-OV-3 ovarian) of the same compound?
A: 1010 nM

Q: And the GI50 (786-0 renal)?
A: 575 nM

Q: What about the TGI (786-0 renal) of the same compound?
A: 5390 nM

Q: And the GI50 (TK-10 renal)?
A: 543 nM

Q: And the TGI (TK-10 renal)?
A: 3970 nM

Q: What about the GI50 (IGROV1 ovarian) of the same compound?
A: 886 nM

Q: What about the TGI (IGROV1 ovarian) of the same compound?
A: > 16700 nM

Q: And the GI50 (SR leukemia)?
A: 685 nM

Q: What about the TGI (SR leukemia) of the same compound?
A: 3620 nM

Q: What about the GI50 (SNB-19 CNS) of the same compound?
A: 616 nM

Q: And the TGI (SNB-19 CNS)?
A: 3890 nM

Q: And the GI50 (ACHN renal)?
A: 517 nM

Q: And the TGI (ACHN renal)?
A: 2960 nM

Q: And the GI50 (KM12 colon)?
A: 651 nM

Q: What about the TGI (KM12 colon) of the same compound?
A: > 16700 nM

Q: And the GI50 (SF-295 CNS)?
A: 453 nM

Q: What about the TGI (SF-295 CNS) of the same compound?
A: 1530 nM

Q: What about the GI50 (SK-MEL-28 melanoma) of the same compound?
A: 952 nM

Q: And the TGI (SK-MEL-28 melanoma)?
A: 4450 nM

Q: What about the GI50 (NCI-H23 lung) of the same compound?
A: 548 nM

Q: And the TGI (NCI-H23 lung)?
A: > 16700 nM

Q: And the GI50 (A549 NSCLC)?
A: 514 nM

Q: And the TGI (A549 NSCLC)?
A: > 16700 nM

Q: What about the GI50 (MOLT-4 leukemia) of the same compound?
A: 793 nM

Q: And the TGI (MOLT-4 leukemia)?
A: 2850 nM

Q: What about the GI50 (EKVX NSCLC) of the same compound?
A: 554 nM

Q: And the TGI (EKVX NSCLC)?
A: > 16700 nM

Q: What about the GI50 (MDA-MB-435) of the same compound?
A: 619 nM

Q: What about the TGI (MDA-MB-435) of the same compound?
A: 7650 nM

Q: And the GI50 (A498 renal)?
A: 390 nM

Q: What about the TGI (A498 renal) of the same compound?
A: 1170 nM

Q: And the GI50 (SF-268 CNS)?
A: 726 nM

Q: What about the TGI (SF-268 CNS) of the same compound?
A: 4260 nM

Q: What about the GI50 (MALME-3M melanoma) of the same compound?
A: 458 nM

Q: What about the TGI (MALME-3M melanoma) of the same compound?
A: 1810 nM

Q: And the GI50 (MCF7 breast)?
A: 529 nM

Q: What about the TGI (MCF7 breast) of the same compound?
A: > 16700 nM

Q: And the GI50 (HCC-2998 colon)?
A: 846 nM

Q: And the TGI (HCC-2998 colon)?
A: 8060 nM

Q: What about the GI50 (K-562 leukemia) of the same compound?
A: 687 nM

Q: What about the TGI (K-562 leukemia) of the same compound?
A: > 16700 nM

Q: What about the GI50 (HT29 colon) of the same compound?
A: 567 nM

Q: What about the TGI (HT29 colon) of the same compound?
A: 2160 nM

Q: And the GI50 (SW-620 colon)?
A: 616 nM

Q: And the TGI (SW-620 colon)?
A: > 16700 nM

Q: What about the GI50 (T-47D breast) of the same compound?
A: 472 nM

Q: What about the TGI (T-47D breast) of the same compound?
A: 1470 nM

Q: What about the GI50 (RPMI-8226 leukemia) of the same compound?
A: 413 nM

Q: And the TGI (RPMI-8226 leukemia)?
A: 1020 nM

Q: What about the GI50 (SF-539 CNS) of the same compound?
A: 638 nM

Q: What about the TGI (SF-539 CNS) of the same compound?
A: 2710 nM

Q: What about the GI50 (U251 CNS) of the same compound?
A: 560 nM

Q: And the TGI (U251 CNS)?
A: 2330 nM

Q: What about the GI50 (BT-549 breast) of the same compound?
A: 501 nM

Q: What about the TGI (BT-549 breast) of the same compound?
A: 1750 nM

Q: And the GI50 (COLO 205 colon)?
A: 341 nM

Q: What about the TGI (COLO 205 colon) of the same compound?
A: 743 nM

Q: And the GI50 (RXF 393 renal)?
A: 420 nM

Q: What about the TGI (RXF 393 renal) of the same compound?
A: 2570 nM

Q: What about the GI50 (HS 578T breast) of the same compound?
A: 745 nM

Q: And the TGI (HS 578T breast)?
A: 6960 nM

Q: And the GI50 (MDA-MB-231 breast)?
A: 520 nM

Q: And the TGI (MDA-MB-231 breast)?
A: 1630 nM

Q: What about the GI50 (SN12C renal) of the same compound?
A: 544 nM

Q: What about the TGI (SN12C renal) of the same compound?
A: 2160 nM

Q: And the GI50 (CCRF-CEM leukemia)?
A: 600 nM

Q: What about the TGI (CCRF-CEM leukemia) of the same compound?
A: 3040 nM

Q: And the GI50 (NCI-H522 lung)?
A: 429 nM

Q: And the TGI (NCI-H522 lung)?
A: 1650 nM

Q: What about the GI50 (OVCAR-5 ovarian) of the same compound?
A: 537 nM

Q: What about the TGI (OVCAR-5 ovarian) of the same compound?
A: 6120 nM

Q: And the GI50 (HCT-116 colon)?
A: 532 nM

Q: And the TGI (HCT-116 colon)?
A: > 16700 nM

Q: What about the GI50 (PC-3 prostate) of the same compound?
A: 588 nM

Q: And the TGI (PC-3 prostate)?
A: 9930 nM

Q: What about the GI50 (SNB-75 CNS) of the same compound?
A: 507 nM

Q: What about the TGI (SNB-75 CNS) of the same compound?
A: 2820 nM
